Measurements published in patent publication US20240408068A1, “Helicase Primase Inhibitors For Treating Cancer In A Combination Therapy With Oncolytic Viruses” (priority 2018, published 2024).
Read-outs that look alike come from different tables or passages of the source.

Legend:
HSV-1 [1] = experiment: In vitro activity, HSV-1 infected Vero cells; format: cell-based
Description: (§1) The in vitro activity of the new compounds was measured as described in WO2017/174640 and in WO2019/068817.

HSV-2 = experiment: In vitro activity, HSV-2 infected Vero cells; format: cell-based
Description: as §1

HSV-1 ACV resistant = experiment: In vitro activity, HSV-1 ACV resistant; format: cell-based; settings: Human alphaherpesvirus 1
Description: as §1

HSV-1 [2] = experiment: Second oHSV experiment (repeated virus injection): number of dead animals by day; format: in vivo, mice; settings: for Number of dead animals by day: n=10; for rescue of mice from virus-induced death: second experiment, multiple intratumoral HSV injections, 10 mg/kg po
Description: The methods of the first experiment were used and the experimental design was modified in the second experiment as follows: • 1. The oncolytic herpesvirus was, in contrast to the first experiment, injected multiple times at a constant dose at distinct intervals. • 2. In addition to Example 7(-) used in the first experiment, the efficacy of a series of helicase primase inhibitors was tested in the second experiment to enable the class of helicase primase inhibitors in general.
Pharmacological animal groups (10 animals per group, 80 animals in total and 5 animals per group in the satellite group; 50 animals in total used for analysis of plasma and tumor samples) were organized as such: • 1. Control virus-untreated group: test compound vehicle, oral gavage, once a day, for 2 days and starting 48 h after each virus injection time-point. • 2. Control virus vehicle-treated group: 100 μL of virus vehicle by intratumoral injection when tumors reached an average volume of ˜50 mm^3 (i.e. on day 11) then 2 injections spaced 5 days apart from each other; with test compound vehicle, oral gavage, once a day, for 2 days and starting 48 h after each virus injection time-point. • 3. HSV-1 (5×10^7 pfu)-treated group: 100 μL of HSV-1 (5×10^7) by intratumoral injection when tumors reached an average volume of ˜50 mm^3 (i.e. on day 11) then 2 injections spaced 5 days apart from each other; with test compound vehicle, oral gavage, once a day, for 2 days and starting 48 h after each virus injection time-point and with anti-PD-1 vehicle, intraperitoneal injection (100 μL PBS) on the same day as the virus injection, and then 3 administrations spaced 3 days apart from each other (days 11, 14, 17 and 20). • 4. HSV-1 (5×10^7 pfu)+anti-PD1-treated group: 100 μL of HSV-1 (5×10^7 pfu) intratumoral injection when tumors reached an average volume of ˜50 mm^3 (i.e. on day 11) then 2 injections spaced 5 days apart from each other; with test compound vehicle, oral gavage, once a day, for 2 days and starting 48 h after each virus injection time-point and with anti-PD-1 (5 mg/kg), intraperitoneal injection on the same day as the virus injection, and then 3 administrations spaced 3 days apart from each other (days 11, 14, 17 and 20). • 5. HSV-1 (5×10^7 pfu)-Example 10—treated group: 100 μL of HSV-1 (5×10^7 pfu) intratumoral injection when tumors reached an average volume of ˜50 mm^3 (i.e. on day 11) then 2 injections spaced 5 days apart from each other; with Example 10 (10 mg/kg), oral gavage, once a day, for 2 days and starting 48 h after each virus injection time-point (days 13, 14, 18, 19, 23 and 24). • 6. HSV-1 (5×10^7 pfu)-pritelivir-treated group: 100 μL of HSV-1 (5×10^7 pfu) intratumoral injection when tumors reached an average volume of ˜50 mm^3 (i.e. on day 11) then 2 injections spaced 5 days apart from each other; with pritelivir (10 mg/kg), oral gavage, once a day, for 2 days and starting 48 h after each virus injection time-point (days 13, 14, 18, 19, 23 and 24). • 7. HSV-1 (5×10^7 pfu)-amenamevir-treated group: 100 μL of HSV-1 (5×10^7 pfu) intratumoral injection when tumors reached an average volume of ˜5 0mm^3 (i.e. on day 11) then 2 injections spaced 5 days apart from each other; with amenamevir (10 mg/kg), oral gavage, once a day, for 2 days and starting 48 h after each virus injection time-point (days 13, 14, 18, 19, 23 and 24). • 8. HSV-1 (5×10^7 pfu)-Example 10+anti-PD1-treated group: 100 μL of HSV-1 (5×10^7 pfu) intratumoral injection when tumors reached an average volume of ˜50 mm^3 (i.e. on day 11) then 2 injections spaced 5 days apart from each other; with Example 10 (10 mg/kg), oral gavage, once a day, for 2 days and starting 48 h after each virus injection time-point (days 13, 14, 18, 19, 23 and 24) and with anti-PD-1 (5 mg/kg), intraperitoneal injection on the same day as the virus injection and then 3 administrations spaced 3 days apart each other (days 11, 14, 17 and 20). Results of the Second oHSV Experiment […]

[3] = described in WO2019/068817; cited from earlier work
carboanhydrase = settings: described in WO2019/068817; cited from earlier work

Question: Which IC50 (HSV-1 [1]; Human alphaherpesvirus 1, Vero) does the source give for `Cc1nc(N(C)C(=O)C2Cc3ccc(-c4cc(F)ccc4F)cc3C2)sc1S(N)(=O)=O` (racemic) [Example 1, 5-(2,5-Difluorophenyl)-N-methyl-N-(4-methyl-5-sulfamoylthiazol-2-yl)-2,3-di-hydro-1H-indene-2-carboxamide] here?
Answer: 16 nM

Question: What about the IC50 (HSV-2; Human alphaherpesvirus 2, Vero) of the same compound?
Answer: 50 nM

Question: And the IC50 (HSV-1 ACV resistant)?
Answer: 16 nM

Question: With `Cc1nc(N(C)C(=O)C2Cc3ccc(-c4cc(F)ccc4F)cc3C2)sc1S(C)(=N)=O` (racemic) [Example 4, 5-(2,5-Difluorophenyl)-N-methyl-N-(4-methyl-5-(S-methylsulfonimidoyl)thiazol-2-yl)-2,3-dihydro-1H-indene-2-carboxamide] as the compound, how does the IC50 (HSV-1 [1]; Human alphaherpesvirus 1, Vero) read?
Answer: 750 nM

Question: What about the IC50 (HSV-2; Human alphaherpesvirus 2, Vero) of the same compound?
Answer: 1500 nM

Question: What about the IC50 (HSV-1 ACV resistant) of the same compound?
Answer: 750 nM

Question: For `Cc1nc(N(C)C(=O)C2Cc3ccc(-c4cc(F)ccc4F)cc3C2)sc1S(C)(=N)=O` (single isomer, unassigned) [Example 5, 5-(2,5-Difluorophenyl)-N-methyl-N-(4-methyl-5-(S-methylsulfonimidoyl)thiazol-2-yl)-2,3-dihydro-1H-indene-2-carboxamide], which IC50 (HSV-1 [1]) is on record?
Answer: 20000 nM

Question: What about the IC50 (HSV-2) of the same compound?
Answer: 20000 nM

Question: With `Cc1nc(N(C)C(=O)C2Cc3ccc(-c4cc(F)ccc4F)cc3C2)sc1S(C)(=N)=O` (single isomer, unassigned) [Example 6, 5-(2,5-Difluorophenyl)-N-methyl-N-(4-methyl-5-(S-methylsulfonimidoyl)thiazol-2-yl)-2,3-dihydro-1H-indene-2-carboxamide] as the compound, how does the IC50 (HSV-1 [1]) read?
Answer: 75 nM

Question: What about the IC50 (HSV-2) of the same compound?
Answer: 750 nM

Question: What does the source list for `Cc1nc(N(C)C(=O)C2Cc3ccc(-c4cc(F)ccc4F)cc3C2)sc1S(C)(=N)=O` (single isomer, unassigned) [Example 8, 5-(2,5-Difluorophenyl)-N-methyl-N-(4-methyl-5-(S-methylsulfonimidoyl)thiazol-2-yl)-2,3-dihydro-1H-indene-2-carboxamide]?
Answer: IC50 (HSV-1 [1]): 175 nM; IC50 (HSV-2): 1500 nM

Question: With `Cc1nc(N(C)C(=O)C2Cc3ccc(-c4cc(F)ccc4F)cc3C2)sc1S(C)(=N)=O` (single isomer, unassigned) [Example 9, 5-(2,5-Difluorophenyl)-N-methyl-N-(4-methyl-5-(S-methylsulfonimidoyl)thiazol-2-yl)-2,3-dihydro-1H-indene-2-carboxamide] as the compound, how does the IC50 (HSV-1 [1]) read?
Answer: 10000 nM

Question: And the IC50 (HSV-2)?
Answer: 45000 nM

Question: For `Cc1nc(N(C)C(=O)C2Cc3ccc(-c4cc(F)ccc4F)cc3C2)sc1S(N)(=O)=O` (single isomer, unassigned; (+)) [Example 3, (+)-5-(2,5-difluorophenyl)-N-methyl-N-(4-methyl-5-sulfamoylthiazol-2-yl)-2,3-dihydro-1H-indene-2-carboxamide], which IC50 (HSV-1 [1]) is on record?
Answer: 0.5 nM

Question: And the IC50 (HSV-2)?
Answer: 16 nM

Question: With `Cc1nc(N(C)C(=O)C2Cc3ccc(-c4cc(F)ccc4F)cc3C2)sc1S(N)(=O)=O` (single isomer, unassigned; (-)) [Example 2, (−)-5-(2,5-Difluorophenyl)-N-methyl-N-(4-methyl-5-sulfamoylthiazol-2-yl)-2,3-dihydro-1H-indene-2-carboxamide] as the compound, how does the IC50 (HSV-1 [1]) read?
Answer: 2000 nM

Question: And the IC50 (HSV-2)?
Answer: 16000 nM

Question: Which IC50 (HSV-1 [1]; Human alphaherpesvirus 1, Vero) does the source give for `Nc1nc2c(ncn2COCCO)c(=O)[nH]1` [Acyclovir, reference compound] here?
Answer: 500 to 3000 nM

Question: And the IC50 (HSV-2; Human alphaherpesvirus 2, Vero)?
Answer: 500 to 3000 nM

Question: And the IC50 (HSV-1 ACV resistant)?
Answer: > 25000 nM

Question: Which results are given for `Cc1nc(N(C)C(=O)Cc2ccc(-c3cc(F)ccc3F)cc2)sc1S(N)(=O)=O` [Example 10, 2-(2′,5′-Difluoro-[1,1′-biphenyl]-4-yl)-N-methyl-N-(4-methyl-5-sulfamoylthiazol-2-yl)acetamide]?
Answer: Number of dead animals by day (HSV-1 [2]; day 7, HSV-1 5×10^7 pfu + Example 10 10 mg/kg po): 0; Number of dead animals by day (HSV-1 [2]; day 7, HSV-1 5×10^7 pfu + anti-PD-1 5 mg/kg ip + Example 10 10 mg/kg po): 0; Number of dead animals by day (HSV-1 [2]; day 9, HSV-1 5×10^7 pfu + Example 10 10 mg/kg po): 0; Number of dead animals by day (HSV-1 [2]; day 9, HSV-1 5×10^7 pfu + anti-PD-1 5 mg/kg ip + Example 10 10 mg/kg po): 0; Number of dead animals by day (HSV-1 [2]; day 11, HSV-1 5×10^7 pfu + Example 10 10 mg/kg po): 0; Number of dead animals by day (HSV-1 [2]; day 11, HSV-1 5×10^7 pfu + anti-PD-1 5 mg/kg ip + Example 10 10 mg/kg po): 0; Number of dead animals by day (HSV-1 [2]; day 14, HSV-1 5×10^7 pfu + Example 10 10 mg/kg po): 0; Number of dead animals by day (HSV-1 [2]; day 14, HSV-1 5×10^7 pfu + anti-PD-1 5 mg/kg ip + Example 10 10 mg/kg po): 0; Number of dead animals by day (HSV-1 [2]; day 16, HSV-1 5×10^7 pfu + Example 10 10 mg/kg po): 0; Number of dead animals by day (HSV-1 [2]; day 16, HSV-1 5×10^7 pfu + anti-PD-1 5 mg/kg ip + Example 10 10 mg/kg po): 0; Number of dead animals by day (HSV-1 [2]; day 18, HSV-1 5×10^7 pfu + Example 10 10 mg/kg po): 1; Number of dead animals by day (HSV-1 [2]; day 18, HSV-1 5×10^7 pfu + anti-PD-1 5 mg/kg ip + Example 10 10 mg/kg po): 1; Number of dead animals by day (HSV-1 [2]; day 21, HSV-1 5×10^7 pfu + Example 10 10 mg/kg po): 1; Number of dead animals by day (HSV-1 [2]; day 21, HSV-1 5×10^7 pfu + anti-PD-1 5 mg/kg ip + Example 10 10 mg/kg po): 1; rescue of mice from virus-induced death (HSV-1 [2]): the mice can be rescued

Question: What does the source list for `Cc1cccc(C)c1N(CC(=O)Nc1ccc(-c2ncon2)cc1)C(=O)C1CCS(=O)(=O)CC1` [amenamevir, Amenamevir]?
Answer: Number of dead animals by day (HSV-1 [2]; day 7, HSV-1 5×10^7 pfu + amenamevir 10 mg/kg po): 0; Number of dead animals by day (HSV-1 [2]; day 9, HSV-1 5×10^7 pfu + amenamevir 10 mg/kg po): 0; Number of dead animals by day (HSV-1 [2]; day 11, HSV-1 5×10^7 pfu + amenamevir 10 mg/kg po): 0; Number of dead animals by day (HSV-1 [2]; day 14, HSV-1 5×10^7 pfu + amenamevir 10 mg/kg po): 0; Number of dead animals by day (HSV-1 [2]; day 16, HSV-1 5×10^7 pfu + amenamevir 10 mg/kg po): 0; Number of dead animals by day (HSV-1 [2]; day 18, HSV-1 5×10^7 pfu + amenamevir 10 mg/kg po): 2; Number of dead animals by day (HSV-1 [2]; day 21, HSV-1 5×10^7 pfu + amenamevir 10 mg/kg po): 2; rescue of mice from virus-induced death (HSV-1 [2]): the mice can be rescued

Question: With `Cc1nc(N(C)C(=O)Cc2ccc(-c3cc(F)ccc3F)cc2)sc1[S@@](C)(=N)=O` [drawing 1] as the compound, how does the brain penetration [3] read?
Answer: improved brain penetration

Question: What about the off-target carboanhydrase activity (carboanhydrase) of the same compound?
Answer: no off-target carboanhydrase activity

Question: With `Cc1nc(N(C)C(=O)Cc2ccc(-c3ccccn3)cc2)sc1S(N)(=O)=O` [pritelivir, Pritelivir] as the compound, how does the “Number of dead animals by day” value (HSV-1 [2]; day 7, HSV-1 5×10^7 pfu + pritelivir 10 mg/kg po) read?
Answer: 0

Question: And the “Number of dead animals by day” value (HSV-1 [2]; day 9, HSV-1 5×10^7 pfu + pritelivir 10 mg/kg po)?
Answer: 0

Question: And the “Number of dead animals by day” value (HSV-1 [2]; day 11, HSV-1 5×10^7 pfu + pritelivir 10 mg/kg po)?
Answer: 0

Question: What about the “Number of dead animals by day” value (HSV-1 [2]; day 14, HSV-1 5×10^7 pfu + pritelivir 10 mg/kg po) of the same compound?
Answer: 0

Question: What about the “Number of dead animals by day” value (HSV-1 [2]; day 16, HSV-1 5×10^7 pfu + pritelivir 10 mg/kg po) of the same compound?
Answer: 0

Question: What about the “Number of dead animals by day” value (HSV-1 [2]; day 18, HSV-1 5×10^7 pfu + pritelivir 10 mg/kg po) of the same compound?
Answer: 0

Question: What about the “Number of dead animals by day” value (HSV-1 [2]; day 21, HSV-1 5×10^7 pfu + pritelivir 10 mg/kg po) of the same compound?
Answer: 0

Question: What about the “rescue of mice from virus-induced death” value (HSV-1 [2]) of the same compound?
Answer: the mice can be rescued
